# Experimental data taken from ChEMBL document CHEMBL1201862, “PubChem BioAssay data set” (2004).
# The source made the active and inactive calls.
# How the values were obtained:
# [1] = biological target: Polyadenylate-binding protein 1 (Homo sapiens, UniProt P11940); test: blockers of PABP interaction with poly(A) – biochemical, fluorescence polarization, […] (AID 2014)
# [2] = biological target: Eukaryotic translation initiation factor 4H (Homo sapiens, UniProt Q15056); test: eIF4H binding inhibition – biochemical, uHTS, fluorescence polarization, translation initiation inhibitor project, primary screen (AID 2012)
# NS3 = NS3 (Hepatitis C virus, UniProt A3EZJ3); test: PubChem AID 2173; parameters: species or system Hepacivirus hominis
# [3] = biological target: Serine/threonine-protein phosphatase (Homo sapiens, UniProt Q9BPW0); test: Counterscreen for inhibitors of PP1: fluorescence-based biochemical high throughput dose response assay to identify inhibitors of Protein Phosphatase 5 (PP5). [Related pubchem assays: 2034 (Summary (PP5 inhibitors)), 1987 (PP5 inhibitors in singlate), 2235 (PP1 inhibitors in singlate)]
# [4] = biological target: Serine/threonine-protein phosphatase PP1-alpha catalytic subunit (Homo sapiens, UniProt P62136); test: inhibition of protein phosphatase 1 activity – biochemical, fluorescence, dose response (AID 2403);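 further: phosphatase turnover of OMFP into fluorescent 3-O-methylfluorescein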
# ORF 73 = biological target: T1, ORF 73 (Human herpesvirus 8, UniProt O40947); test: KSHV LANA DNA-binding disruption – biochemical, fluorescence polarization, cherry-picked samples, dose response (AID 504725); parameters: species or system Human gammaherpesvirus 8;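 further: fluorescence polarization of a labeled DNA duplex reporting LANA DNA binding; potency is for inhibitors that block LANA binding to the DNA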
# T1 sequence (O40947 whole entry): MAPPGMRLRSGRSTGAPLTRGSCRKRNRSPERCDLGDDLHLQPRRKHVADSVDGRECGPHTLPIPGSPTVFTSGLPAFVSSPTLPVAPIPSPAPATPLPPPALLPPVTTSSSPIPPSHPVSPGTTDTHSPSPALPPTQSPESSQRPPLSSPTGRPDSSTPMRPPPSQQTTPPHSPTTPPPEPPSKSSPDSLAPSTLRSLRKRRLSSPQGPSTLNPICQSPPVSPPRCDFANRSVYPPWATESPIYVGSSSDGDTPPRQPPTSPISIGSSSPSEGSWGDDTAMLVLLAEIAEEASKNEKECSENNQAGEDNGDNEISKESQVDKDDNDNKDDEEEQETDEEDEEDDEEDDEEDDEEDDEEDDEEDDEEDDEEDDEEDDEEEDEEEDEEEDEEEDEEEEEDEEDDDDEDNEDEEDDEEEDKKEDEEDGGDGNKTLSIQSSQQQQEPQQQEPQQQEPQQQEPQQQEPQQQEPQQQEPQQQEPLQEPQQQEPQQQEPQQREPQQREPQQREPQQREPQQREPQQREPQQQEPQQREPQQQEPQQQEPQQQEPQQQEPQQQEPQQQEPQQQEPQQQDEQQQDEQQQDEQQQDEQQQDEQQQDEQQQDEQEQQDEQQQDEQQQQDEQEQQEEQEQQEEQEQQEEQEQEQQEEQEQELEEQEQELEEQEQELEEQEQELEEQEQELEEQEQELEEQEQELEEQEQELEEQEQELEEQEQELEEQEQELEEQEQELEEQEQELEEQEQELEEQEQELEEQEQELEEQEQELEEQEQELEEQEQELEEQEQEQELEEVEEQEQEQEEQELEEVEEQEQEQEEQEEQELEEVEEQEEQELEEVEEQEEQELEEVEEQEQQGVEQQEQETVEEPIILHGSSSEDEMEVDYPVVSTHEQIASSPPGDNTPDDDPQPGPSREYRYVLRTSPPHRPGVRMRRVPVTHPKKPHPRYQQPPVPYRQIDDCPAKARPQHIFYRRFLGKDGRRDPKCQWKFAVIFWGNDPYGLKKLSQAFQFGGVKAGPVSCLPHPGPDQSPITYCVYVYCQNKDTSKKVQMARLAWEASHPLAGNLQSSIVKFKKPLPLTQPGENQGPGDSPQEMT
# [5] = biological target: T2, Zinc finger protein mex-5 (Caenorhabditis elegans, UniProt Q9XUB2); test: potency of MEX-5 RNA-binding blockers – biochemical, C. elegans, fluorescence polarization, dose response (AID 1960)
# T2 sequence (Q9XUB2 whole entry): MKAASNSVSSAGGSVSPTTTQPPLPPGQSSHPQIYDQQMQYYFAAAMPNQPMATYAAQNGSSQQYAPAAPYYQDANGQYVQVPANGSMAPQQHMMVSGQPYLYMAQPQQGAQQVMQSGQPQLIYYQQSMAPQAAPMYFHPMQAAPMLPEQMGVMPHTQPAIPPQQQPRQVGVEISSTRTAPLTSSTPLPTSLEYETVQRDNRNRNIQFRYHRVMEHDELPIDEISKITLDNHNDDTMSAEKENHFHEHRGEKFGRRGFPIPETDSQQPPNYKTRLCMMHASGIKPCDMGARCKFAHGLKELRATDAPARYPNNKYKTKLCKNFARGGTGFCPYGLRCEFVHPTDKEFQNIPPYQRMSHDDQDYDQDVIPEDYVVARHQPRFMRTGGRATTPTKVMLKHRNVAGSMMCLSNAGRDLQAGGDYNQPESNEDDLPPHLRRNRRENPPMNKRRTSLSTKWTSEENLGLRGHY
# Salmon testes DNA = test: acridine orange-DNA binding displacement – biochemical, fluorescence polarization, cherry-picked samples, set 2, artefact control for KSHV LANA DNA-binding inhibitor project, dose response (AID 504727); parameters: species or system Salmonidae
# [6] = biological target: T3, RNA-binding protein pos-1 (Caenorhabditis elegans, UniProt G5EF15); test: disruptors of C. elegans POS-1 RNA interaction – biochemical, fluorescence polarization, dose response (AID 1964);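 further: purified POS-1 fused to maltose binding protein made in E. coli; potency of compounds blocking POS-1 binding to fluorescent RNA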
# T3 sequence (G5EF15 whole entry): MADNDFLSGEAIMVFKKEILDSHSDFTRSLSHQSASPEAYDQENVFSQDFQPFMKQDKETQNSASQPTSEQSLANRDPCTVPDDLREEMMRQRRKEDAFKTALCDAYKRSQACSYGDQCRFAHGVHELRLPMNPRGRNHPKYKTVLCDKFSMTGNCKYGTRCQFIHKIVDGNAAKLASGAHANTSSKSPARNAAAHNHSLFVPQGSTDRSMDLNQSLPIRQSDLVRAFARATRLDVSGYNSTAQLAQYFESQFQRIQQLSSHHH
# [7] = biological target: Signal transducer and activator of transcription 3 (Homo sapiens, UniProt P40763); test: STAT3 activation with BCL3 mRNA and toxicity – cell-based, […], BCL3 qPCR, cytotoxicity, late-stage follow-up, panel member STAT3 Activation (AID 2049)
# X-box-binding protein 1 = X-box-binding protein 1 (Homo sapiens, UniProt P17861); assay type: functional, Cricetulus griseus;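 further: confirmatory dose-response counter-screen serving a CHOP assay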
# [8] = biological target: Cystic fibrosis transmembrane conductance regulator/Golgi-associated PDZ and coiled-coil motif-containing protein (Homo sapiens, UniProt P13569+Q9HD26); test: potency against CAL PDZ-peptide interaction – biochemical, fluorescence polarization, Cerulean-tagged CAL PDZ, cherry-picks, dose response (AID 504773)
# Hexokinase HKDC1 = biological target: T4, Hexokinase HKDC1 (Homo sapiens, UniProt Q2TB90); test: inhibition of HKDC1 glucose phosphorylation – biochemical, W721R variant, dose response (AID 504729); assay type: functional
# T4 sequence (Q2TB90 whole entry): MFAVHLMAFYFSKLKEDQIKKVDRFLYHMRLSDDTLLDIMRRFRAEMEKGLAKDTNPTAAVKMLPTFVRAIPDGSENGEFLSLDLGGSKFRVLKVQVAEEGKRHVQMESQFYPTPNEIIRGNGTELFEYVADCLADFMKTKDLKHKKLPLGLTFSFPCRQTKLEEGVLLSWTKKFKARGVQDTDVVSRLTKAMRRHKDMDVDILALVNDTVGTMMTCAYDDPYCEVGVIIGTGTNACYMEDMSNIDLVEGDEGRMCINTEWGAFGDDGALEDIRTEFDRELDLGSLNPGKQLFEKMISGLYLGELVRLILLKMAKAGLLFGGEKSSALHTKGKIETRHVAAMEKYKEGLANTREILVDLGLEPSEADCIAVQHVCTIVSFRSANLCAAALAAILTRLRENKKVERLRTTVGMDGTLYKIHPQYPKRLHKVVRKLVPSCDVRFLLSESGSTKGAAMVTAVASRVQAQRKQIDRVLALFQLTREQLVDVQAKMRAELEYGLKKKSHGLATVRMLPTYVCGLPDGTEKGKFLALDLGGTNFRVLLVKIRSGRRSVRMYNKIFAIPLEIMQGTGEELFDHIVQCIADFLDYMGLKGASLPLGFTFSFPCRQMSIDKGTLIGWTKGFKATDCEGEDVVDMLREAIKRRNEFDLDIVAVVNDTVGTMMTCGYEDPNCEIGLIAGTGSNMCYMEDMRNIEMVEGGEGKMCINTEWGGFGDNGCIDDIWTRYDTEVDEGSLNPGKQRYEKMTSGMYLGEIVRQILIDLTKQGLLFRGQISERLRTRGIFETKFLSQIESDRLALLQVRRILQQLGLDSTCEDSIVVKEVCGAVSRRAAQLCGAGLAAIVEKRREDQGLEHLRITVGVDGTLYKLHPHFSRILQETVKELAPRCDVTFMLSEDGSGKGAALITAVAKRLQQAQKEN
# INS1 = test: INS-1E survival protection against cytokine death – cell-based, luminescence, retest, dose response (AID 449756); assay type: functional; conditions: Rattus norvegicus;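 further: cell death triggered by IL-1 beta plus TNF-alpha plus IFN-gamma mixture; protective hits raise ATP signal compared with cytokine alone wells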
# Beta-galactosidase = Beta-galactosidase (Escherichia coli, UniProt Q8VNN2); test: detection-enzyme interference by beta-gal modulators – biochemical, E. coli enzyme, set 3, artefact control for CCR6 antagonist project, dose response (AID 504712); assay type: functional
# [9] = biological target: Eukaryotic translation initiation factor 4E (Mus musculus, UniProt P63073); test: blockers of eIF4G binding by eIF4E – biochemical, TR-FRET, dose response (AID 855); assay type: functional;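 further: potency for disrupting eIF4E binding to eIF4GI seen as loss of FRET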
# [10] = biological target: Induced myeloid leukemia cell differentiation protein Mcl-1 (Homo sapiens, UniProt Q07820); assay type: functional
# Chain of Induced myeloid leukemia cell differentiation protein Mcl-1 (Q07820 whole entry): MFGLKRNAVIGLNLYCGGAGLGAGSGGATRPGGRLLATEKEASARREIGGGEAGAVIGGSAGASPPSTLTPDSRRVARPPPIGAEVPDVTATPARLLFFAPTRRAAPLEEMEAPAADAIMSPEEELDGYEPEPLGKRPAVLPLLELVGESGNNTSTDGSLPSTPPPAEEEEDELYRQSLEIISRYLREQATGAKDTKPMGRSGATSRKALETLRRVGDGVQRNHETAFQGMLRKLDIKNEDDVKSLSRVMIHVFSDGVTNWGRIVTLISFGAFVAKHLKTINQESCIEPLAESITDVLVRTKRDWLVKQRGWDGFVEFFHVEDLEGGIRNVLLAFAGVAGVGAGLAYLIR
# Chain of NS3 (A3EZJ3 whole entry): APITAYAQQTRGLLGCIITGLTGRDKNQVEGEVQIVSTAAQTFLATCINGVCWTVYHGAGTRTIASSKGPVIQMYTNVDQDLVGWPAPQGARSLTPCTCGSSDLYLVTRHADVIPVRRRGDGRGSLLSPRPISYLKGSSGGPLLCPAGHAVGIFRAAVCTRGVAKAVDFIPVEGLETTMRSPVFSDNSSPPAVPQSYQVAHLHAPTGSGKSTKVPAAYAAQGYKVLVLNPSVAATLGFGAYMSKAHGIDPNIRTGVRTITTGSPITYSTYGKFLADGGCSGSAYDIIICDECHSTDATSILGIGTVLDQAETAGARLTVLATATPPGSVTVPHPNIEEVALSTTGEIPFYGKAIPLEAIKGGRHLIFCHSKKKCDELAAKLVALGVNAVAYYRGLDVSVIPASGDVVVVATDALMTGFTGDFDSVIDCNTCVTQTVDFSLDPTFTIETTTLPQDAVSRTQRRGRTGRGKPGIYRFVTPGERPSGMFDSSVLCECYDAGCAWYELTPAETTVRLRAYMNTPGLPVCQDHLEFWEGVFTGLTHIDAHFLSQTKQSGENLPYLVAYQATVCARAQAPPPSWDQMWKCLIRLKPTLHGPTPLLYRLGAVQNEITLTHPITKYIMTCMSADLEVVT
# Chain of X-box-binding protein 1 (P17861 whole entry): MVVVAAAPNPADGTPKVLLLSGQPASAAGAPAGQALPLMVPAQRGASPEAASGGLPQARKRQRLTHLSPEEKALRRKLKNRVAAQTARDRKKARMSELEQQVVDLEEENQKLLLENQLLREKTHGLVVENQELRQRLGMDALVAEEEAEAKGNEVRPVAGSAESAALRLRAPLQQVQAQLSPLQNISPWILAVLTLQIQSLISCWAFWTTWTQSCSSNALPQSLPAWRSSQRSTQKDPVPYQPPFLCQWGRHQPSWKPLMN
# Chain of Serine/threonine-protein phosphatase (Q9BPW0 whole entry): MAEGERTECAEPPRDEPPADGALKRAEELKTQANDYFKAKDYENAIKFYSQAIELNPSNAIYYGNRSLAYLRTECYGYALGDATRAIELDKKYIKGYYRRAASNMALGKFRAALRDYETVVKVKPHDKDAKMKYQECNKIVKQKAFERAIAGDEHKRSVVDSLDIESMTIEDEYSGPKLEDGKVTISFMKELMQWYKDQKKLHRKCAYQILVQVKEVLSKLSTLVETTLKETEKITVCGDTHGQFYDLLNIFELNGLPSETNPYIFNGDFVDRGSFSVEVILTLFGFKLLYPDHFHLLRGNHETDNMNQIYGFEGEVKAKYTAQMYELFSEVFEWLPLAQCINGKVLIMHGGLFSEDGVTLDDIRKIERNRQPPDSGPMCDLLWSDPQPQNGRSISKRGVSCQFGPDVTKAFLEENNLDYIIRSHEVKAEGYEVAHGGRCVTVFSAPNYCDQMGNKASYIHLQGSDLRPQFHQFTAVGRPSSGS
# Chain of Polyadenylate-binding protein 1 (P11940 whole entry): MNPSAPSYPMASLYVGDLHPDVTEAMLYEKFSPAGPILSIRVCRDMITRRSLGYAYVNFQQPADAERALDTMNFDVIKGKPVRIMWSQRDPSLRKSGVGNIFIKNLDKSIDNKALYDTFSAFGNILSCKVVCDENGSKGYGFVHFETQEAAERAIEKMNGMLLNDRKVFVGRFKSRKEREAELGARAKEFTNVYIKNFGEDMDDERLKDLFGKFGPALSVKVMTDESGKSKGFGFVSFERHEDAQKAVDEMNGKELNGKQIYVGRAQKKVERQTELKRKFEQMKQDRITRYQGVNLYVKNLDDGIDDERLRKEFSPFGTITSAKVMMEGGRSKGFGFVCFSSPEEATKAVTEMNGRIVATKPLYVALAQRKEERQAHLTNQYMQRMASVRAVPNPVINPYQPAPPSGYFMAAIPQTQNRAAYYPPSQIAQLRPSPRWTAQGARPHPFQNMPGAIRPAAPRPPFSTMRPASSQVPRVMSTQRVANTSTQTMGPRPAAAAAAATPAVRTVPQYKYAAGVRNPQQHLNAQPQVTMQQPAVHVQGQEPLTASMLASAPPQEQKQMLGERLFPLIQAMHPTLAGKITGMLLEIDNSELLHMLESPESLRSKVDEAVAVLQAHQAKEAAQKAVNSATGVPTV
# Chain of Eukaryotic translation initiation factor 4E (P63073 whole entry): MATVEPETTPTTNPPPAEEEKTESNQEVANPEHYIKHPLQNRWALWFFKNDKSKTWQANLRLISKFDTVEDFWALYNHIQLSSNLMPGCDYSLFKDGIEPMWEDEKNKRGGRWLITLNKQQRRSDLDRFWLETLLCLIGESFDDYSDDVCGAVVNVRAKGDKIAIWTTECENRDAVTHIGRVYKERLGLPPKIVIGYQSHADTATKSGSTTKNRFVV
# Chain of Serine/threonine-protein phosphatase PP1-alpha catalytic subunit (P62136 whole entry): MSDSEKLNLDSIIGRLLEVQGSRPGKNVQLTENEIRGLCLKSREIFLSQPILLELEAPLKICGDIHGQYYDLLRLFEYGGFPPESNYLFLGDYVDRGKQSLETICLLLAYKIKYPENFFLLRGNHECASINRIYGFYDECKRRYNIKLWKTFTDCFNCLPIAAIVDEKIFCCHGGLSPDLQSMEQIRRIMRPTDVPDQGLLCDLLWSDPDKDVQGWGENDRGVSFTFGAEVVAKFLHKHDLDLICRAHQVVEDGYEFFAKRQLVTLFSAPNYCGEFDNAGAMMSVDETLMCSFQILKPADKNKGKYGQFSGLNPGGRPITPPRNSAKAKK
# Chain of Cystic fibrosis transmembrane conductance regulator/Golgi-associated PDZ and coiled-coil motif-containing protein (P13569 whole entry, other chains not shown): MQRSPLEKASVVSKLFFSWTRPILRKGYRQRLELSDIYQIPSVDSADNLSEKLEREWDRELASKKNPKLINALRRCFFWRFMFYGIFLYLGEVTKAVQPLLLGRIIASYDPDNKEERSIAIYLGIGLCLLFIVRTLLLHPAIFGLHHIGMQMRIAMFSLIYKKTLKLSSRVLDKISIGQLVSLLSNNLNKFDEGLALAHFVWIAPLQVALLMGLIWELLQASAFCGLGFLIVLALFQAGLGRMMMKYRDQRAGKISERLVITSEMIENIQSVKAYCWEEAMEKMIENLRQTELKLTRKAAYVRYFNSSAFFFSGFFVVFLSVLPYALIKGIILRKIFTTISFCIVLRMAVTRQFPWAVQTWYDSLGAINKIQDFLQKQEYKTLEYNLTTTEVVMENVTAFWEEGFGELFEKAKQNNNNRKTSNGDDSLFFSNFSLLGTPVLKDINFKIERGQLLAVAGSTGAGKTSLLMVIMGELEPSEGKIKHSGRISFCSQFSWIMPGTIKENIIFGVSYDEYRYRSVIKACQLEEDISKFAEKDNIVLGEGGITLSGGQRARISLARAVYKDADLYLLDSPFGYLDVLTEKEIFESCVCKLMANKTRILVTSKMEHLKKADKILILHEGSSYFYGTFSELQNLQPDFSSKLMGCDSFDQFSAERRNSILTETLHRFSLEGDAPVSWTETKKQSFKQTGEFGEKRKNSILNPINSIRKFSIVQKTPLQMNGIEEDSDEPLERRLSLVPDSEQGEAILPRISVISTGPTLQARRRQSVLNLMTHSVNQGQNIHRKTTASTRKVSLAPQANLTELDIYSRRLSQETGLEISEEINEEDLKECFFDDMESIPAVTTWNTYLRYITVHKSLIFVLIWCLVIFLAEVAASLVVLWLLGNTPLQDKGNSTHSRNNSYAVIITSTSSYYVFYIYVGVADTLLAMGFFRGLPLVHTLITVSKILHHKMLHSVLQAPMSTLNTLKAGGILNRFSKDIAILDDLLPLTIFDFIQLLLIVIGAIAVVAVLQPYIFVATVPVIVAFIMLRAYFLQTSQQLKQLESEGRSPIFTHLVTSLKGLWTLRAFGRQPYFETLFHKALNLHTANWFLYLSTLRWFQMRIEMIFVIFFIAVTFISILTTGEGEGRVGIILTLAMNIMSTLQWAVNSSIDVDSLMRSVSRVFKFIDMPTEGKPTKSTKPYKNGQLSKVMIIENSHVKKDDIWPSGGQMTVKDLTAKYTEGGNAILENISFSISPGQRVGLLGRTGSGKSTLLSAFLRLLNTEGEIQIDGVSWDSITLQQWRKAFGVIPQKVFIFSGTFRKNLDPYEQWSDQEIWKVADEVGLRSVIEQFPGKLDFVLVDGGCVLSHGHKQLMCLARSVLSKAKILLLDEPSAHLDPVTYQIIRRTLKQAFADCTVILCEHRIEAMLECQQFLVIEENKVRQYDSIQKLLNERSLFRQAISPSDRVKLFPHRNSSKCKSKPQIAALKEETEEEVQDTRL
structure (smiles),measurement,setting,value
O=C(C[n+]1ccccc1)c1ccc(Cl)cc1,IC50,[1],5.96 µM (active)
same,IC50,[2],> 100 µM (inactive)
CCCOc1ccc(C2C(C(=O)c3ccc(C)o3)=C(O)C(=O)N2Cc2ccco2)cc1OCC (configuration not stated),IC50,NS3,5.19 µM (active)
CCn1c2ccccc2c2cc(NC(=O)COC(=O)c3ccc(NC(=O)CC#N)cc3)ccc21,IC50,[3],> 67 µM (not active)
same,IC50,[4],7.27 µM (active)
CCc1cc[n+](-c2[n-]c(=O)sc2C=O)cc1,AC50,ORF 73,73.5 µM (active)
same,EC50,[5],11.8 µM (active)
same,AC50,Salmon testes DNA,141 µM (active)
same,EC50,[6],16.7 µM (active)
COc1cc(NC(=O)c2cc(C3CC3)on2)ccc1Br,EC50,[7],> 5.57 µM (inactive)
COCCn1/c(=N/C(=O)/C=C/c2cccs2)sc2cc(NC(C)=O)ccc21,Absolute IC50 (XBP1),X-box-binding protein 1,10 µM
CCc1ccc(S(=O)(=O)/N=C2/C=C(Sc3nc[nH]n3)C(=O)c3ccccc32)cc1,AC50,[8],23.1 µM (active)
same,IC50,Hexokinase HKDC1,2.46 µM (active)
same,AC50,INS1,7.93 µM (active)
same,IC50,Beta-galactosidase,> 66.6 µM (inactive)
same,IC50,[9],> 64 µM (inactive)
same,IC50,[10],5.9 µM (active)
